From patent EP4782008A1 (priority 2023, dated 2025)

Tests used:
[1] = Pharmacokinetics following single oral administration; format: in vivo, healthy Chinese subjects; conditions: for AUC(0-inf) / peak plasma drug concentration: empty stomach
Method: Trial design: single-center, randomized, double-blind, placebo-controlled, dose-escalation, single administration. Number of subjects: Planned enrollment: 52 subjects, Final analysis: 51 subjects.
• Specifications: 0.5 mg/tablet, 1 mg/tablet, 2 mg/tablet, prepared according to the method of Example 1; • Dose: 0.5 mg, 1 mg, 2 mg, 4 mg, 8 mg, 12 mg. • Administration method: Single-dose, taken with an appropriate amount of water (240 mL).
Evaluation indicators of pharmacokinetic parameters: Time to peak (Tmax), peak concentration (Cmax), area under the plasma concentration time curve from 0 to t (AUC0-t), area under the plasma concentration time curve from 0 to infinity (AUC0-∞), elimination rate constant (λz), half-life period (t1/2), total clearance/bioavailability (CL/F), apparent volume of distribution/bioavailability (Vd/F).
Pharmacokinetic analysis: Pharmacokinetic parameters were calculated using the non-compartmental analysis (NCA) and Phoenix WinNonlin 7.0 data analysis software. Descriptive statistical analysis was performed on pharmacokinetic parameters, providing the number of subjects, arithmetic mean, standard deviation, minimum, median, maximum, and coefficient of variation (CV). Tmax was expressed as median (minimum - maximum). AUC and Cmax belong to a log-normal distribution. The geometric mean was also provided. The relationship between administered dose and drug plasma exposure was evaluated by plotting scatter plots of log-transformed pharmacokinetic parameters (AUC and Cmax) in relation to log dose. Furthermore, the Power model method was used to further explore the linear analysis of administered dose and drug plasma exposure.
A single dose of the tablets of the compound of formula (I) was administered orally to healthy volunteers on empty stomach. […] When the administered doses were 1 mg, 2 mg, 4 mg, 8 mg, and 12 mg, the peak plasma drug concentrations were 1.19 ng/mL, 2.43 ng/mL, 8.61 ng/mL, 16.4 ng/mL, and 23.5 ng/mL, respectively, and the AUC0-∞ were 14.7 h·ng/mL, 29.8 h·ng/mL, 69.4 h·ng/mL, 135 h·ng/mL, and 220 h·ng/mL, respectively. […] Within the dose range of 1 mg-12 mg, Cmax and AUC0-∞ increased with increasing administered dose, and the increase ratio in AUC0-∞ was basically consistent with the dose increase ratio. The inter-individual variability of plasma drug exposure is around 30%.

[2] = background statement; cited from earlier work
[3] = molecular target: hERG (Homo sapiens, UniProt Q12809); conditions: background statement; cited from earlier work
Sequence of hERG (Q12809 whole entry): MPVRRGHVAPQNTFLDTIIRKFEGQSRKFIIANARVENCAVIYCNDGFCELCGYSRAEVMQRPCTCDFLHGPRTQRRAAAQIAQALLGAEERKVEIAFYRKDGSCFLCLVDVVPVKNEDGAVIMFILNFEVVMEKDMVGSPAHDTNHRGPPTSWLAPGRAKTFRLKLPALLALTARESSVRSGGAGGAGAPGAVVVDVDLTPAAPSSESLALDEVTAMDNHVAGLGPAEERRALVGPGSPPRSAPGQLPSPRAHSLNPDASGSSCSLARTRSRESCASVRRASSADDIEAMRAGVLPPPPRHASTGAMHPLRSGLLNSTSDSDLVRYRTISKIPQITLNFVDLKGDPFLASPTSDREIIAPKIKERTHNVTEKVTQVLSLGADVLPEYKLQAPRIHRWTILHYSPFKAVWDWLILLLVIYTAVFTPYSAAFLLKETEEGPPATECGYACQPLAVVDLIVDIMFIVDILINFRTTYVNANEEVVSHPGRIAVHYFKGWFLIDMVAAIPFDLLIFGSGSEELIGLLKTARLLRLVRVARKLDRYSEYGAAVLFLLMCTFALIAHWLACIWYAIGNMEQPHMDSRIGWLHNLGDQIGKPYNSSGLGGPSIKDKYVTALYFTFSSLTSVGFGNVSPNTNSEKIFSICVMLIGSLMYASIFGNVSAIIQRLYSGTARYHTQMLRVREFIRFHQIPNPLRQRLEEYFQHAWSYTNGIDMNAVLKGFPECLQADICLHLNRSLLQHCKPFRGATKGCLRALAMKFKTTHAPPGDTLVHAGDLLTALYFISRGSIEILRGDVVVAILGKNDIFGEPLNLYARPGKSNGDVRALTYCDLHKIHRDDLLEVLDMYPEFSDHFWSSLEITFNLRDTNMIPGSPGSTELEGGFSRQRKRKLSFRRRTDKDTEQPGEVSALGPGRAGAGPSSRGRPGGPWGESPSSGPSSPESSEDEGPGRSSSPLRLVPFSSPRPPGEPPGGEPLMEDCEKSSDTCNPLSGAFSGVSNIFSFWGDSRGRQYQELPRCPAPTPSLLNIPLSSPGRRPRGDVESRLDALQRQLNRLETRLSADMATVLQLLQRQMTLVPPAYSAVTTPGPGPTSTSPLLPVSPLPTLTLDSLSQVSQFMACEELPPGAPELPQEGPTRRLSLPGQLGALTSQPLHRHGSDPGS

[4] = background statement; cited from earlier work; remark: listed apart in the source
[5] = background statement; cited from earlier work; remark: listed apart in the source

SMILES: COc1cc2c(cc1OC)C(=O)C(CC1(F)CCN(Cc3ccccc3F)CC1)C2 (stereo not shown) [compound of formula (I), 2-(4-fluoro-(1-(2-fluorobenzyl))piperidin-4-yl-methyl)-5,6-dimethoxy-2,3-dihydro-1-indanone]
- AUC(0-inf) ([1]; human, plasma, single oral dose 1 mg): 14.7 ng·h/mL
- AUC(0-inf) ([1]; human, plasma, single oral dose 2 mg): 29.8 ng·h/mL
- AUC(0-inf) ([1]; human, plasma, single oral dose 4 mg): 69.4 ng·h/mL
- AUC(0-inf) ([1]; human, plasma, single oral dose 8 mg): 135 ng·h/mL
- AUC(0-inf) ([1]; human, plasma, single oral dose 12 mg): 220 ng·h/mL
- half-life ([1]; human, plasma, single oral dose of tablets on empty stomach, range over dose groups, read-out: mean plasma drug elimination half-life period): 14.2 to 32.1 h
- inter-individual variability of plasma drug exposure ([1]; single oral dose): around 30%
- peak plasma drug concentration ([1]; single oral dose 1 mg): 1.19 ng/mL
- peak plasma drug concentration ([1]; single oral dose 2 mg): 2.43 ng/mL
- peak plasma drug concentration ([1]; single oral dose 4 mg): 8.61 ng/mL
- peak plasma drug concentration ([1]; single oral dose 8 mg): 16.4 ng/mL
- peak plasma drug concentration ([1]; single oral dose 12 mg): 23.5 ng/mL
- drug concentration in brain tissue relative to the plasma drug concentration [2]: 4.4 times
- hERG toxicity [3]: no
- genetic toxicity [4]: no
- oral bioavailability [5]: high
